Counter-ions that a name gives are not always drawn. Like-named read-outs stand apart in the source and are kept apart here.
Columns and labels:
[1] = target: T1, Alpha-2D adrenergic receptor (Rattus norvegicus, UniProt P22909); test: Alpha-2D adrenergic receptor binding assay (3H-para-aminoclonidine, rat cortex synaptic membranes); conditions: ligand 3H-para-aminoclonidine, 25° C. 20 min
T1 construct: aliquots of the synaptic membrane fraction, the ligand ^3H-para-aminoclonidine and test drug; from tissue; host or cells: rat brain cortex synaptic membrane fraction (male Wistar rats)
T1 sequence (P22909 1-465): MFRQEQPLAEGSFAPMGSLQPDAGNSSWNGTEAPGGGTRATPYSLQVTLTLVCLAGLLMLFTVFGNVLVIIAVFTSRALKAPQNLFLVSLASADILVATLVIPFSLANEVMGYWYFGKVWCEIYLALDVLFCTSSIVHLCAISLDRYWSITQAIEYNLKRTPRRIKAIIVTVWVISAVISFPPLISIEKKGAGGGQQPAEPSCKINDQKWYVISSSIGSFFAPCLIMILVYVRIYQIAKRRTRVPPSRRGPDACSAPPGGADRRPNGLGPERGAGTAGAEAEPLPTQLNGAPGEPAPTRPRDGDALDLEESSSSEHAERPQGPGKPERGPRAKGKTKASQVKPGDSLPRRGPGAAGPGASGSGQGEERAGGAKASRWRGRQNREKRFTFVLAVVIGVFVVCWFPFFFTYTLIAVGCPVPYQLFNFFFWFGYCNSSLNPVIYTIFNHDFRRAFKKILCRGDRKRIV
Protocol: Alpha-2D adrenergic receptor binding assay
Male, Wistar rats (150-250 g, VAF, Charles River, Kingston, N.Y.) are sacrificed by cervical dislocation and their brains removed and placed immediately in ice cold HEPES buffered sucrose. The cortex is dissected out and homogenized in 20 volumes of HEPES sucrose in a Teflon™-glass homogenizer. The homogenate is centrifuged at 1000 g for 10 min, and the resulting supernatant centrifuged at 42,000 g for 10 min. The resulting pellet is resuspended in 30 volumes of 3 mM potassium phosphate buffer, pH 7.5, preincubated at 25° C. for 30 min and recentrifuged. The resulting pellet is resuspended as described above and used for the receptor binding assay. […] The incubation is terminated by filtration of the tube contents through glass fiber filter sheets. Following washing of the sheets with 10 mM HEPES buffer, the adhering radioactivity is quantified by liquid scintillation spectrometry.
Binding of the test drug to the receptor is determined by comparing the amount of radiolabeled ligand bound in control tubes without drug to the amount of radiolabeled ligand bound in the presence of the drug. Dose-response data are analyzed with LIGAND, a nonlinear curve fitting program designed specifically for the analysis of ligand binding data.

Work on OC(c1c[nH]cn1)c1cc2ccccc2s1 (centres unmarked) [Cp-2] yielded a Ki ([1]; α2D Ki) of 74.9 nM.

Compound CC(c1c[nH]cn1)c1cc2ccccc2s1 (centres unmarked) [Cp-3] has a Ki ([1]; α2D Ki) of 14 nM.

In the case of c1ccc2sc(Cc3c[nH]cn3)cc2c1 [Cp-1], the Ki ([1]; α2D Ki) is reported as 1.1 nM.

c1ccc2sc(-c3c[nH]cn3)cc2c1 [Cp-9] showed a Ki ([1]; read-out: α2D Ki) of 18 nM.

With c1nc(Cc2nc3c(s2)CCCC3)c[nH]1 [Cp-11] the Ki ([1]; read-out: α2D Ki) was 110 nM.

With c1nc(Cc2nc3c(s2)CCCC3)c[nH]1 (as salt: fumaric acid salt) [Cp-11] the melting point was 169 to 171 °C.

Brc1c(Cc2c[nH]cn2)sc2ccccc12 [Cp-4] showed a Ki ([1]; α2D Ki) of 0.22 nM.

With c1ccc2c(Cc3c[nH]cn3)csc2c1 [Cp-6] the Ki ([1]; α2D Ki) was 0.09 nM.

From US20020025974A1, “BICYCLE THIOPHENES AND THIAZOLES” (priority 1998, published 2002)
